This note sets out measurements from PubChem BioAssay (NCI).

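A five-concentration, 48-hour dose response in 96-well plates underlies each endpoint, interpolated linearly between surrounding concentrations. TGI: total growth inhibition.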

In one assay the test system is COLO 205 colon. Nature of the assay: DTP human tumour cell line panel, 48 h.
On to `COc1cc2c(c(O)c1OC)-c1c(cc(OC)c(OC)c1OC)CC(C)C(C)C2` (stereo not given), for which the TGI was over 100 µM.

The compound `O=C1c2ccccc2C(O)(O)C1(O)C1(O)C(=O)c2ccccc2C1(O)O` (stereo not given) gave a TGI of 40.5 µM.

The compound `CC[C@]1(Cc2ccc(OC)c(OC)c2)C=[N+]([O-])O[C@H](OC2CCCC2(c2ccccc2)c2ccccc2)[C@@H]1OC(=O)c1ccccc1` (stereo not given in full) registered a TGI of over 100 µM.

`O=C1/C(=C\c2ccc(O)cc2)CCC/C1=C/c1ccc(Cl)c(Cl)c1` came in with a TGI of 3.67 µM.

For another assay, the system named is PC-3 prostate. Nature of the assay: DTP human tumour cell line panel, 48 h.
Consider `COc1cc2c(c(O)c1OC)-c1c(cc(OC)c(OC)c1OC)CC(C)C(C)C2` (stereo not given), for which the TGI is over 100 µM.

Compound `O=C1c2ccccc2C(O)(O)C1(O)C1(O)C(=O)c2ccccc2C1(O)O` (stereo not given) gave a TGI of over 100 µM.

`CC[C@]1(Cc2ccc(OC)c(OC)c2)C=[N+]([O-])O[C@H](OC2CCCC2(c2ccccc2)c2ccccc2)[C@@H]1OC(=O)c1ccccc1` (stereo not given in full) yielded a TGI of over 100 µM.

Compound `O=C1/C(=C\c2ccc(O)cc2)CCC/C1=C/c1ccc(Cl)c(Cl)c1` had a TGI of 12.7 µM.

A further assay concerns HS 578T breast. As to the kind of experiment: DTP human tumour cell line panel, 48 h.
In turn, `COc1cc2c(c(O)c1OC)-c1c(cc(OC)c(OC)c1OC)CC(C)C(C)C2` (stereo not given) came in with a TGI of over 100 µM.

In turn, `O=C1c2ccccc2C(O)(O)C1(O)C1(O)C(=O)c2ccccc2C1(O)O` (stereo not given) had a TGI of over 100 µM.

`CC[C@]1(Cc2ccc(OC)c(OC)c2)C=[N+]([O-])O[C@H](OC2CCCC2(c2ccccc2)c2ccccc2)[C@@H]1OC(=O)c1ccccc1` (stereo not given in full): the TGI is over 100 µM.

As to `O=C1/C(=C\c2ccc(O)cc2)CCC/C1=C/c1ccc(Cl)c(Cl)c1`, the TGI is 21.5 µM.

Another assay has as its system SF-295 CNS. As to the kind of experiment: DTP human tumour cell line panel, 48 h.
Turning to `COc1cc2c(c(O)c1OC)-c1c(cc(OC)c(OC)c1OC)CC(C)C(C)C2` (stereo not given), the total growth inhibition concentration (TGI) is over 100 µM.

Compound `O=C1c2ccccc2C(O)(O)C1(O)C1(O)C(=O)c2ccccc2C1(O)O` (stereo not given) gave a TGI of 88.5 µM.

In the case of `CC[C@]1(Cc2ccc(OC)c(OC)c2)C=[N+]([O-])O[C@H](OC2CCCC2(c2ccccc2)c2ccccc2)[C@@H]1OC(=O)c1ccccc1` (stereo not given in full), the TGI is over 65.4 µM.

`O=C1/C(=C\c2ccc(O)cc2)CCC/C1=C/c1ccc(Cl)c(Cl)c1` displayed a TGI of 10.1 µM.

A further assay concerns OVCAR-4 ovarian. As to the kind of experiment: DTP human tumour cell line panel, 48 h.
`COc1cc2c(c(O)c1OC)-c1c(cc(OC)c(OC)c1OC)CC(C)C(C)C2` (stereo not given) yielded a TGI of over 100 µM.

`O=C1c2ccccc2C(O)(O)C1(O)C1(O)C(=O)c2ccccc2C1(O)O` (stereo not given) yielded a TGI of over 100 µM.

Take `CC[C@]1(Cc2ccc(OC)c(OC)c2)C=[N+]([O-])O[C@H](OC2CCCC2(c2ccccc2)c2ccccc2)[C@@H]1OC(=O)c1ccccc1` (stereo not given in full): the TGI is over 100 µM.

`O=C1/C(=C\c2ccc(O)cc2)CCC/C1=C/c1ccc(Cl)c(Cl)c1` had a TGI of 5.93 µM.

A further assay deals with A498 renal. Nature of the assay: DTP human tumour cell line panel, 48 h.
For the compound `COc1cc2c(c(O)c1OC)-c1c(cc(OC)c(OC)c1OC)CC(C)C(C)C2` (stereo not given), the TGI is over 100 µM.

For the compound `O=C1c2ccccc2C(O)(O)C1(O)C1(O)C(=O)c2ccccc2C1(O)O` (stereo not given), the TGI is over 100 µM.

Compound `O=C1/C(=C\c2ccc(O)cc2)CCC/C1=C/c1ccc(Cl)c(Cl)c1` displayed a TGI of 14.3 µM.

Another assay deals with MCF7 breast. As to the kind of experiment: DTP human tumour cell line panel, 48 h.
Compound `COc1cc2c(c(O)c1OC)-c1c(cc(OC)c(OC)c1OC)CC(C)C(C)C2` (stereo not given) returned a TGI of over 100 µM.

Compound `O=C1c2ccccc2C(O)(O)C1(O)C1(O)C(=O)c2ccccc2C1(O)O` (stereo not given) yielded a TGI of 30.5 µM.

On to `CC[C@]1(Cc2ccc(OC)c(OC)c2)C=[N+]([O-])O[C@H](OC2CCCC2(c2ccccc2)c2ccccc2)[C@@H]1OC(=O)c1ccccc1` (stereo not given in full), for which the TGI is over 24.9 µM.

`O=C1/C(=C\c2ccc(O)cc2)CCC/C1=C/c1ccc(Cl)c(Cl)c1` gave a TGI of 14.9 µM.

A further assay deals with SF-268 CNS. Nature of the assay: DTP human tumour cell line panel, 48 h.
In the case of `COc1cc2c(c(O)c1OC)-c1c(cc(OC)c(OC)c1OC)CC(C)C(C)C2` (stereo not given), the TGI is over 100 µM.

Compound `O=C1c2ccccc2C(O)(O)C1(O)C1(O)C(=O)c2ccccc2C1(O)O` (stereo not given) displayed a total growth inhibition concentration (TGI) of over 100 µM.

For `CC[C@]1(Cc2ccc(OC)c(OC)c2)C=[N+]([O-])O[C@H](OC2CCCC2(c2ccccc2)c2ccccc2)[C@@H]1OC(=O)c1ccccc1` (stereo not given in full), the TGI is over 100 µM.

In the case of `O=C1/C(=C\c2ccc(O)cc2)CCC/C1=C/c1ccc(Cl)c(Cl)c1`, the TGI came to 11.9 µM.

In a further assay the test system is NCI-H226 lung. As to the kind of experiment: DTP human tumour cell line panel, 48 h.
In turn, `COc1cc2c(c(O)c1OC)-c1c(cc(OC)c(OC)c1OC)CC(C)C(C)C2` (stereo not given) yielded a concentration for total growth inhibition (TGI) of over 100 µM.

With `O=C1c2ccccc2C(O)(O)C1(O)C1(O)C(=O)c2ccccc2C1(O)O` (stereo not given), the TGI is over 100 µM.

As to `CC[C@]1(Cc2ccc(OC)c(OC)c2)C=[N+]([O-])O[C@H](OC2CCCC2(c2ccccc2)c2ccccc2)[C@@H]1OC(=O)c1ccccc1` (stereo not given in full), the TGI is over 100 µM.

In turn, `O=C1/C(=C\c2ccc(O)cc2)CCC/C1=C/c1ccc(Cl)c(Cl)c1` gave a TGI of 15.5 µM.

For a further assay, the system named is HL-60(TB) leukemia. As to the kind of experiment: DTP human tumour cell line panel, 48 h.
Regarding `COc1cc2c(c(O)c1OC)-c1c(cc(OC)c(OC)c1OC)CC(C)C(C)C2` (stereo not given), the concentration for total growth inhibition (TGI) stood at 55.2 µM.

`O=C1c2ccccc2C(O)(O)C1(O)C1(O)C(=O)c2ccccc2C1(O)O` (stereo not given): the concentration for total growth inhibition (TGI) was found to be 53.2 µM.

`CC[C@]1(Cc2ccc(OC)c(OC)c2)C=[N+]([O-])O[C@H](OC2CCCC2(c2ccccc2)c2ccccc2)[C@@H]1OC(=O)c1ccccc1` (stereo not given in full) displayed a TGI of over 100 µM.

For `O=C1/C(=C\c2ccc(O)cc2)CCC/C1=C/c1ccc(Cl)c(Cl)c1`, the TGI is 4.94 µM.

For the next assay, the system named is OVCAR-8 ovarian. As to the kind of experiment: DTP human tumour cell line panel, 48 h.
With `COc1cc2c(c(O)c1OC)-c1c(cc(OC)c(OC)c1OC)CC(C)C(C)C2` (stereo not given), the TGI was over 100 µM.

For the compound `O=C1c2ccccc2C(O)(O)C1(O)C1(O)C(=O)c2ccccc2C1(O)O` (stereo not given), the TGI was over 100 µM.

For the compound `CC[C@]1(Cc2ccc(OC)c(OC)c2)C=[N+]([O-])O[C@H](OC2CCCC2(c2ccccc2)c2ccccc2)[C@@H]1OC(=O)c1ccccc1` (stereo not given in full), the TGI was over 100 µM.

The test system of a further assay is U251 CNS. As to the kind of experiment: DTP human tumour cell line panel, 48 h.
With `COc1cc2c(c(O)c1OC)-c1c(cc(OC)c(OC)c1OC)CC(C)C(C)C2` (stereo not given), the TGI is over 100 µM.

`O=C1c2ccccc2C(O)(O)C1(O)C1(O)C(=O)c2ccccc2C1(O)O` (stereo not given): the TGI was over 100 µM.

Compound `CC[C@]1(Cc2ccc(OC)c(OC)c2)C=[N+]([O-])O[C@H](OC2CCCC2(c2ccccc2)c2ccccc2)[C@@H]1OC(=O)c1ccccc1` (stereo not given in full) registered a TGI of over 100 µM.

On to `O=C1/C(=C\c2ccc(O)cc2)CCC/C1=C/c1ccc(Cl)c(Cl)c1`, for which the TGI amounted to 16 µM.

In a further assay the test system is SR leukemia. As to the kind of experiment: DTP human tumour cell line panel, 48 h.
Compound `COc1cc2c(c(O)c1OC)-c1c(cc(OC)c(OC)c1OC)CC(C)C(C)C2` (stereo not given) showed a TGI of 57 µM.

In the case of `CC[C@]1(Cc2ccc(OC)c(OC)c2)C=[N+]([O-])O[C@H](OC2CCCC2(c2ccccc2)c2ccccc2)[C@@H]1OC(=O)c1ccccc1` (stereo not given in full), the TGI was over 100 µM.

Another assay deals with ACHN renal. As to the kind of experiment: DTP human tumour cell line panel, 48 h.
`COc1cc2c(c(O)c1OC)-c1c(cc(OC)c(OC)c1OC)CC(C)C(C)C2` (stereo not given) had a TGI of over 100 µM.

`O=C1c2ccccc2C(O)(O)C1(O)C1(O)C(=O)c2ccccc2C1(O)O` (stereo not given) showed a TGI of 47.9 µM.

Compound `CC[C@]1(Cc2ccc(OC)c(OC)c2)C=[N+]([O-])O[C@H](OC2CCCC2(c2ccccc2)c2ccccc2)[C@@H]1OC(=O)c1ccccc1` (stereo not given in full) yielded a TGI of over 34.8 µM.

For the compound `O=C1/C(=C\c2ccc(O)cc2)CCC/C1=C/c1ccc(Cl)c(Cl)c1`, the TGI was determined as 12.1 µM.

The test system of another assay is MDA-MB-435. As to the kind of experiment: DTP human tumour cell line panel, 48 h.
In turn, `COc1cc2c(c(O)c1OC)-c1c(cc(OC)c(OC)c1OC)CC(C)C(C)C2` (stereo not given) displayed a TGI of over 100 µM.

`O=C1c2ccccc2C(O)(O)C1(O)C1(O)C(=O)c2ccccc2C1(O)O` (stereo not given) showed a total growth inhibition concentration (TGI) of 32.8 µM.

For the compound `CC[C@]1(Cc2ccc(OC)c(OC)c2)C=[N+]([O-])O[C@H](OC2CCCC2(c2ccccc2)c2ccccc2)[C@@H]1OC(=O)c1ccccc1` (stereo not given in full), the TGI was over 46.3 µM.

One may read the TGI as the concentration at which net growth stops. High values mean less potent growth arrest, low ones more potent growth arrest.
